The values that follow come from article PMC4667793 (Journal of medicinal chemistry, 2015).

Data set [1] has as its system MDR-TB and XDR-TB strains. The settings on record: ten MDR-TB and XDR-TB strains; cited from earlier work.
Data set [2] has as its target T1, MtBPL (Mycobacterium tuberculosis, UniProt I6YFP0). To be noted: for -TΔS: calculated from ΔG (displacement) and ΔH (direct titration); for ΔH: direct titration ITC, 25 °C.
In data set [3] the target is T1, MtBPL. The settings on record: for ΔG: from K of displacement ITC, 298 K.
For data set [4] the following is noted: cyclonucleoside formation or decomposition at room temperature.
Data set [5] addresses T1, MtBPL. Briefly: biochemical.
Data set [6] has as its target T1, MtBPL. Briefly: biochemical. The settings on record: read-out: ΔTm.
In the next data set the test system is M. tuberculosis H37Rv. Briefly: microbe, parasite or virus in culture. To be noted: Mycobacterium tuberculosis.

The term MIC denotes the lowest concentration that inhibits growth of the organism. By Kd is commonly meant the constant that tells how readily two partners part at equilibrium. A high value points to weaker binding. A word on the ΔTm: it is the shift of the melting midpoint relative to a reference.

Several values for one entry are separate records, joined by “and”; a condition that tells them apart may be missing. Identical values can stand only once. Counter-ions that a name gives are not always drawn.

T1 sequence (I6YFP0 whole entry, looked up): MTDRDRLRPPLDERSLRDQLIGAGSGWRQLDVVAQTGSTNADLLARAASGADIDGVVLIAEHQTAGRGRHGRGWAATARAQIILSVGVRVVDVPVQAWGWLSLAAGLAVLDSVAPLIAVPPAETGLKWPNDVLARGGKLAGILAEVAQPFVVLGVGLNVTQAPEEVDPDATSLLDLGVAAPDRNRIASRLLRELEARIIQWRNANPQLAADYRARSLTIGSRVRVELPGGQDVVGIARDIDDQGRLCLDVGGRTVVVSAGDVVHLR

Consider `Nc1ncnc2c1ncn2[C@@H]1O[C@H](CNS(=O)(=O)NC(=O)CCCC[C@@H]2SC[C@@H]3NC(=O)N[C@@H]32)[C@@H](O)[C@H]1O` [Compound 14, 5′-[N-(D-biotinoyl)sulfamoyl]amino-5′-deoxyadenosine triethylammonium salt], for which the minimal inhibitory concentration (MIC) in data set [1] was 0.16 to 0.625 µM. In addition, on MtBPL [2], the “-TΔS” value is listed as 6.6 ± 0.1 kcal/mol and the ΔH was -18.9 ± 0.1 kcal/mol.
For `CCN(CC)CC.Nc1ncnc2c1ncn2[C@@H]1C[C@H](CNS(=O)(=O)NC(=O)CCCC[C@@H]2SC[C@@H]3NC(=O)N[C@@H]32)[C@@H](O)[C@H]1O` [Compound 28], at MtBPL [3], the ΔG is -12.4 kcal/mol and -12.4 ± 0.0 kcal/mol. Besides, at MtBPL [2], the “-TΔS” value is reported as 7.8 ± 0.2 kcal/mol and the ΔH is -20.2 ± 0.2 kcal/mol.
On MtBPL [3], `CCN(CC)CC.Nc1ncnc2c1ncn2[C@H]1C=C[C@@H](CNS(=O)(=O)NC(=O)CCCC[C@@H]2SC[C@@H]3NC(=O)N[C@@H]32)C1` [Compound 34] gave a ΔG of -11.8 ± 0.2 kcal/mol. Besides, at MtBPL [2], the “-TΔS” value was 10.3 ± 0.2 kcal/mol and the ΔH was -22.1 ± 0.2 kcal/mol.
On to `CCN(CC)CC.Nc1ncnc2c1ncn2[C@H]1CC[C@@H](CNS(=O)(=O)NC(=O)CCCC[C@@H]2SC[C@@H]3NC(=O)N[C@@H]32)C1` [Compound 36], for which the ΔG on MtBPL [3] is -12.6 ± 0.2 kcal/mol. On MtBPL [2], the “-TΔS” value was 10.7 ± 0.4 kcal/mol and the ΔH was -23.5 ± 0.4 kcal/mol.
The like results for `CCN(CC)CC.[N-]=[N+]=N[C@@H]1[C@H](O)[C@@H](CNS(=O)(=O)NC(=O)CCCC[C@@H]2SC[C@@H]3NC(=O)N[C@@H]32)O[C@H]1n1cnc2c(N)ncnc21` [Compound 46] were, in that order, -12.3 ± 0.6 kcal/mol, 10.9 ± 0.3 kcal/mol and -23.2 ± 0.2 kcal/mol.
On to `CCN(CC)CC.Nc1ncnc2c1ncn2[C@@H]1O[C@H](CNS(=O)(=O)NC(=O)CCCC[C@@H]2SC[C@@H]3NC(=O)N[C@@H]32)[C@@H](O)[C@H]1N` [Compound 47], for which, at MtBPL [3], the ΔG was -12.6 ± 1.0 kcal/mol. Further, on MtBPL [2], the “-TΔS” value is 6.5 ± 0.2 kcal/mol and the ΔH is -19.1 ± 0.1 kcal/mol.
As to `[N-]=[N+]=N[C@H]1[C@H](O)[C@@H](COS(=O)(=O)NC(=O)CCCC[C@@H]2SC[C@@H]3NC(=O)N[C@@H]32)O[C@H]1n1cnc2c(N)ncnc21` [Compound 57, 9-{2′-Azido-5′-O-[N-(D-biotinoyl)sulfamoyl]-2′-deoxy-β-D-arabinofuranosyl}adenine triethylammonium salt], the chemical stability entry in data set [4] is “resisted any cyclonucleoside formation”. Moreover, on MtBPL [3], the “fold more potent than 14 (KD)” value worked out at 32 fold and the ΔG is -14.4 ± 0.2 kcal/mol. Besides, the Kd at MtBPL [5] came out at 0.027 nM. Besides, the “-TΔS” value at MtBPL [2] is recorded as 14.9 ± 0.1 kcal/mol. For the same compound, the ΔTm at 43 µM on MtBPL [6] was 17 ± 1 °C. Further, the MIC90 in the data set with M. tuberculosis H37Rv is greater than 100 µM.
Take `CCN(CC)CC.Nc1ncnc2c1ncn2[C@@H]1O[C@H](CNS(=O)(=O)NC(=O)CCCC[C@@H]2SC[C@@H]3NC(=O)N[C@@H]32)[C@@H](O)[C@H]1F` [Compound 63, 5′-[N-(D-Biotinoyl)sulfamoyl]amino-2′,5′-dideoxy-2′-fluoroadenosine triethylammonium salt]: the ΔG at MtBPL [3] was -12.6 ± 0.3 kcal/mol. Further, on MtBPL [2], the “-TΔS” value is listed as 11.8 ± 0.5 kcal/mol; the ΔH is -24.3 kcal/mol and -24.3 ± 0.5 kcal/mol.
Turning to `CCN(CC)CC.Nc1ncnc2c1ncn2[C@@H]1O[C@H](COS(=O)(=O)NC(=O)CCCC[C@@H]2SC[C@@H]3NC(=O)N[C@@H]32)[C@@H](O)[C@@H]1F` [Compound 69, 9-{5′-O-[N-(D-Biotinoyl)sulfamoyl]-2′-deoxy-2′-fluoro-β-D-arabinofuranosyl}adenine triethylammonium salt], the chemical stability entry in data set [4] is “resisted any cyclonucleoside formation”. The same compound yielded a ΔG on MtBPL [3] of -13.4 ± 0.0 kcal/mol. On MtBPL [2], the “-TΔS” value is on record as 14.7 ± 0.5 kcal/mol; the ΔH was -28.4 kcal/mol and -28.4 ± 0.6 kcal/mol.
Consider `CCN(CC)CC.C[C@@]1(O)[C@H](O)[C@@H](COS(=O)(=O)NC(=O)CCCC[C@@H]2SC[C@@H]3NC(=O)N[C@@H]32)O[C@H]1n1cnc2c(N)ncnc21` [Compound 73, 5′-O-[N-(D-Biotinoyl)sulfamoyl]-β-2'-methyladenosine triethylammonium salt], for which the chemical stability entry in data set [4] is listed as “resisted any cyclonucleoside formation”. At MtBPL [3], this compound gave a ΔG of -12.4 ± 0.4 kcal/mol. Also, on MtBPL [2], the “-TΔS” value is on record as 8.1 ± 0.5 kcal/mol and the ΔH is -20.3 ± 0.4 kcal/mol.
Take `CCN(CC)CC.Nc1ncnc2c1ncn2[C@H]1CNC[C@@H](COS(=O)(=O)NC(=O)CCCC[C@@H]2SC[C@@H]3NC(=O)N[C@@H]32)O1` [Compound 82, (2′R,6′S)-9-[6′-({[N-(D-Biotinoyl)sulfamoyl]oxy}methyl)morpholin-2′-yl]adenine triethylammonium salt]: the ΔG at MtBPL [3] is -12.9 ± 0.9 kcal/mol. For the same compound, at MtBPL [2], the “-TΔS” value is 5.9 ± 0.1 kcal/mol and the ΔH is -18.8 ± 0.0 kcal/mol.
Compound `CCN(CC)CC.Nc1ncnc2c1ncn2[C@@H]1O[C@H](CNS(=O)(=O)NC(=O)CCCC[C@@H]2SC[C@@H]3NC(=O)N[C@@H]32)C[C@H]1O` [Compound 87, 5′-[N-(D-Biotinoyl)sulfamoyl]amino-3′,5′-dideoxyadenosine triethylammonium salt] gave a ΔG on MtBPL [3] of -12.6 ± 0.1 kcal/mol. Further, on MtBPL [2], the “-TΔS” value is 8.8 ± 0.6 kcal/mol and the ΔH was -21.4 ± 0.5 kcal/mol.
